Results reported in patent US9790185B2, “Process for the preparation of regorafenib and its crystalline forms” (SHILPA MEDICARE LIMITED, priority 2014, dated 2017).
Where two headings read alike, the source gives them in different places.

Assays:
[1] = cited from earlier work
[2] = background description of the drug substance; cited from earlier work
[3] = tested on: tumour models including colorectal tumour models; settings: preclinical studies; broad spectrum of tumour models including colorectal; mediated by antiangiogenic and antiproliferative effects; cited from earlier work
[4] = Stability on handling and storage of crystalline forms; settings: without any significant or measurable change in morphology and physicochemical characteristics
Source text: (§1) The merit of the process according to the present invention resides in that product isolated after drying is directly obtained as crystalline Form I of Regorafenib (I). Said material is found devoid of any other crystal lattice and is adequately stable to handle and store for longer time (at least up to more than 6 months) without any significant or measurable change in its morphology and physicochemical characteristics. Crystalline Form I of Regorafenib (I) obtained according to the process of the present invention results in the final API purity by of more than 99.5% w/w, and found to be anhydrous with moisture content of not more than 0.5%.
as §1, with “Form III” for “Form I”, “by HPLC” for “by”

time adequately stable to handle and store [4] | Structure (SMILES) | solubility ([1]; in 2-propanol) | solubility ([1]; in PEG 400 (macrogol)) | solubility ([1]; in acetone) | solubility ([1]; in acetonitrile) | solubility ([1]; in dichloromethane) | solubility ([1]; in dilute acid solution) | solubility ([1]; in dilute alkaline solution) | solubility ([1]; in ethanol) | solubility ([1]; in ethyl acetate) | solubility ([1]; in glycerine) | solubility ([1]; in methanol) | solubility ([1]; in n-heptane) | solubility ([1]; in propylene glycol) | solubility ([1]; in toluene) | solubility ([1]; in water) | hygroscopicity [2] | antitumour activity [3]
 | CNC(=O)c1cc(Oc2ccc(NC(=O)Nc3ccc(Cl)c(C(F)(F)F)c3)c(F)c2)ccn1 [Regorafenib, 4-[4-({[4-chloro-3-(trifluoromethyl)phenyl]carbamoyl}amino)-3-fluorophenoxy]-N-methylpyridine-2-carboxamide] | slightly soluble | soluble | sparingly soluble | slightly soluble | slightly soluble | practically insoluable | practically insoluable | slightly soluble | slightly soluble | practically insoluable | slightly soluble | practically insoluable | slightly soluble | practically insoluable | practically insoluable | not hygroscopic | demonstrated antitumour activity
more than 6 months | CNC(=O)c1cc(Oc2ccc(NC(=O)Nc3ccc(Cl)c(C(F)(F)F)c3)c(F)c2)ccn1 [crystalline Form I of Regorafenib (I), 4-[4-({[4-chloro-3-(trifluoromethyl)phenyl]carbamoyl}amino)-3-fluorophenoxy]-N-methylpyridine-2-carboxamide] |  |  |  |  |  |  |  |  |  |  |  |  |  |  |  |  | 
